Our source for the T/C values is PubChem BioAssay AID322 (DTP/NCI, 2004).

SMILES strings stand for the structures. Where “and” joins values, the source holds several entries; their conditions need not be identical. Equal entries are not always repeated. Inconclusive results and toxic doses are left out.

This assay has as its system CD2F1 mice, P388/ADR leukemia ip, median survival T/C. The experiment in a line: NCI In Vivo Anticancer Drug Screen. Data for tumor model P388 Leukemia resistant to Adriamycin; NSC 123127, Developed at Scr 08 (intraperitoneal) in CD2F1 (CDF1) mice. The following applies: endpoint: median survival time, higher = longer survival. As for the experimental part: The antitumor activity of compounds was measured in mice bearing transplantable tumors. Survival or tumor size were measured and the results are expressed as the measurement made in the treated group (T) divided by the measurement made in the vehicle treated control group (C). The tumor model used in this assay is P388 Leukemia resistant to Adriamycin; NSC 123127, Developed at Scr 08 (intraperitoneal) in CD2F1 (CDF1) mice

Setting [1] is: dose: 6.25 mg/kg/injection, schedule: Q01DX005 (ip), vehicle: saline with Tween-80.
Setting [2] is: dose: 50.0 mg/kg/injection, schedule: Q01DX005 (ip), vehicle: saline with Tween-80.
Where [3] appears, read: dose: 25.0 mg/kg/injection, schedule: Q01DX005 (ip), vehicle: saline.
Where [4] appears, read: dose: 100.0 mg/kg/injection, schedule: Q01DX005 (ip), vehicle: saline.
Where [5] appears, read: dose: 100.0 mg/kg/injection, schedule: Q01DX005 (ip), vehicle: saline with Tween-80.
Setting [6] is: dose: 25.0 mg/kg/injection, schedule: Q01DX005 (ip), vehicle: Klucel (hydroxypropylcellulose) (HPC).
[7] abbreviates: dose: 50.0 mg/kg/injection, schedule: Q01DX005 (ip), vehicle: Klucel (hydroxypropylcellulose) (HPC).
[8] abbreviates: dose: 100.0 mg/kg/injection, schedule: Q01DX005 (ip), vehicle: Klucel (hydroxypropylcellulose) (HPC).

For the compound `O=C1C=CC2OC(c3ccccc3)C(O)C2O1` (stereo unspecified), the T/C reads like this: under setting [1], 101 % of control; (dose: 12.5 mg/kg/injection, schedule: Q01DX005 (ip), vehicle: saline with Tween-80) 114 % of control; under setting [2], 119 % of control.
Turning to `CSC1SCC2C(=O)N(C)C(C(C)C)C(=O)OCC(NC(=O)c3cnc4ccccc4n3)C(=O)NC(C)C(=O)N(C)C1C(=O)N(C)C(C(C)C)C(=O)OCC(NC(=O)c1cnc3ccccc3n1)C(=O)NC(C)C(=O)N2C` (stereo unspecified), the T/C by setting is: (dose: 44.0 micrograms/kg/injection, schedule: Q01DX005 (ip), vehicle: saline) 152 % of control; (dose: 100.0 micrograms/kg/injection, schedule: Q01DX005 (ip), vehicle: saline) 151 % of control; (dose: 150.0 micrograms/kg/injection, schedule: Q01DX005 (ip), vehicle: saline) 152 % of control.
With `O=P1(N(CCCl)CCCl)NCCCO1` (stereo unspecified), the T/C was 154 % of control (dose: 12.5 mg/kg/injection, schedule: Q01DX005 (ip), vehicle: saline); 165 % of control and 189 % of control under setting [3]; 191 % of control and 217 % of control (dose: 50.0 mg/kg/injection, schedule: Q01DX005 (ip), vehicle: saline); 171 % of control and 309 % of control under setting [4].
In the case of `O=CC(CO)CC(C=O)n1cnc2c(=O)[nH]cnc21` (stereo unspecified), the T/C was 122 % of control and 124 % of control under setting [3]; 151 % of control under setting [4]; 160 % of control and 170 % of control (dose: 200.0 mg/kg/injection, schedule: Q01DX005 (ip), vehicle: saline); 169 % of control and 170 % of control (dose: 400.0 mg/kg/injection, schedule: Q01DX005 (ip), vehicle: saline).
On to `CC[C@@]1(O)CC(OC2CC(N3CCOCC3)C(O)C(C)O2)c2c(O)c3c(c(O)c2[C@H]1O)C(=O)c1cccc(O)c1C3=O` (stereo partly specified), for which the T/C (dose: 3.0 mg/kg/injection, schedule: Q04DX003 (iv), vehicle: saline) is 160 % of control.
`COc1cc(NS(C)(=O)=O)ccc1Nc1c2ccccc2nc2ccccc12`: the T/C (dose: 1.25 mg/kg/injection, schedule: Q04DX003 (ip), vehicle: other) is 102 % of control; the T/C (dose: 2.5 mg/kg/injection, schedule: Q04DX003 (ip), vehicle: other) is 109 % of control; the T/C (dose: 2.59 mg/kg/injection, schedule: Q04DX003 (ip), vehicle: other) was 107 % of control; the T/C (dose: 4.32 mg/kg/injection, schedule: Q04DX003 (ip), vehicle: other) was 107 % of control; the T/C (dose: 5.0 mg/kg/injection, schedule: Q04DX003 (ip), vehicle: other) is 109 % of control; the T/C (dose: 7.2 mg/kg/injection, schedule: Q04DX003 (ip), vehicle: other) was 104 % of control. In addition, the T/C is 109 % of control (dose: 10.0 mg/kg/injection, schedule: Q04DX003 (ip), vehicle: other); 106 % of control (dose: 12.0 mg/kg/injection, schedule: Q04DX003 (ip), vehicle: other); 105 % of control and 113 % of control (dose: 20.0 mg/kg/injection, schedule: Q04DX003 (ip), vehicle: other).
`Nc1ccc2ccc(NS(=O)(=O)N3CCCCC3)cc2c1`: the T/C is, setting by setting: (dose: 25.0 mg/kg/injection, schedule: Q01DX005 (ip), vehicle: saline with Tween-80) 111 % of control; under setting [2], 107 % of control; under setting [5], 106 % of control; (dose: 200.0 mg/kg/injection, schedule: Q01DX005 (ip), vehicle: saline with Tween-80) 101 % of control; (dose: 400.0 mg/kg/injection, schedule: Q01DX005 (ip), vehicle: saline with Tween-80) 99 % of control.
Regarding `C=C1c2cccc(O)c2C(O)=C2C(=O)[C@]3(O)C(O)=C(C(N)=O)C(=O)[C@@H](N(C)C)[C@@H]3[C@@H](O)[C@H]12`, the T/C was 114 % of control (dose: 21.6 mg/kg/injection, schedule: Q01DX005 (ip), vehicle: Klucel (hydroxypropylcellulose) (HPC)); 109 % of control under setting [6]; 97 % of control and 100 % of control (dose: 36.0 mg/kg/injection, schedule: Q01DX005 (ip), vehicle: Klucel (hydroxypropylcellulose) (HPC)); 118 % of control under setting [7]; 226 % of control and 100 % of control (dose: 60.0 mg/kg/injection, schedule: Q01DX005 (ip), vehicle: Klucel (hydroxypropylcellulose) (HPC)); 99 % of control and 112 % of control under setting [8]. The T/C (dose: 166.66 mg/kg/injection, schedule: Q01DX005 (ip), vehicle: Klucel (hydroxypropylcellulose) (HPC)) is 117 % of control and the T/C (dose: 200.0 mg/kg/injection, schedule: Q01DX005 (ip), vehicle: Klucel (hydroxypropylcellulose) (HPC)) was 119 % of control.
For `O=[N+]([O-])c1ccc(N(CCO)CCO)c2c1no[n+]2[O-]`, the T/C is 114 % of control (dose: 3.12 mg/kg/injection, schedule: Q01DX005 (ip), vehicle: saline with Tween-80) and 124 % of control under setting [1].
In the case of `CCOC1NC(=O)Oc2ccccc21` (stereo unspecified), the T/C (dose: 3.12 mg/kg/injection, schedule: Q01DX005 (ip), vehicle: Klucel (hydroxypropylcellulose) (HPC)) is 101 % of control; the T/C (dose: 6.25 mg/kg/injection, schedule: Q01DX005 (ip), vehicle: Klucel (hydroxypropylcellulose) (HPC)) is 100 % of control; the T/C (dose: 12.5 mg/kg/injection, schedule: Q01DX005 (ip), vehicle: Klucel (hydroxypropylcellulose) (HPC)) was 94 % of control; the T/C under setting [6] is 87 % of control and 101 % of control and 104 % of control; the T/C under setting [7] is 88 % of control and 110 % of control; the T/C (dose: 72.0 mg/kg/injection, schedule: Q01DX005 (ip), vehicle: Klucel (hydroxypropylcellulose) (HPC)) was 108 % of control. Also, the T/C reads like this: under setting [8], 104 % of control and 118 % of control; (dose: 120.0 mg/kg/injection, schedule: Q01DX005 (ip), vehicle: Klucel (hydroxypropylcellulose) (HPC)) 116 % of control; (dose: 333.0 mg/kg/injection, schedule: Q01DX005 (ip), vehicle: Klucel (hydroxypropylcellulose) (HPC)) 153 % of control.
Regarding `CO[C@@]12[C@H](COC(N)=O)C3=C(C(=O)C(C)=C(N)C3=O)N1C[C@@H]1N[C@@H]12`, the T/C is 178 % of control (dose: 0.5 mg/kg/injection, schedule: Q01DX009 (ip), vehicle: saline with Tween-80); 198 % of control and 207 % of control (dose: 1.0 mg/kg/injection, schedule: Q01DX009 (ip), vehicle: saline with Tween-80); 110 % of control and 117 % of control (dose: 2.0 mg/kg/injection, schedule: Q01DX009 (ip), vehicle: saline with Tween-80); 151 % of control (dose: 3.6 mg/kg/injection, schedule: Q01DX001 (ip), vehicle: saline); 154 % of control (dose: 3.6 mg/kg/injection, schedule: Q01DX001 (ip), vehicle: water); 177 % of control (dose: 5.4 mg/kg/injection, schedule: Q01DX001 (ip), vehicle: saline). For the same compound, the T/C is, setting by setting: (dose: 5.4 mg/kg/injection, schedule: Q01DX001 (ip), vehicle: water) 162 % of control; (dose: 12.0 mg/kg/injection, schedule: Q01DX001 (ip), vehicle: saline) 117 % of control; (dose: 12.0 mg/kg/injection, schedule: Q01DX001 (ip), vehicle: water) 112 % of control.
Consider `O=C1NC2(CCCCC2)C(=O)N1CCN(CCCl)CCCl`, for which the T/C runs as follows: (dose: 2.6 mg/kg/injection, schedule: Q01DX009 (ip), vehicle: Klucel (hydroxypropylcellulose) (HPC)) 195 % of control; (dose: 4.0 mg/kg/injection, schedule: Q01DX009 (ip), vehicle: Klucel (hydroxypropylcellulose) (HPC)) 236 % of control; (dose: 6.0 mg/kg/injection, schedule: Q01DX009 (ip), vehicle: Klucel (hydroxypropylcellulose) (HPC)) 226 % of control; (dose: 9.0 mg/kg/injection, schedule: Q01DX009 (ip), vehicle: Klucel (hydroxypropylcellulose) (HPC)) 239 % of control.
With `BrC[P+](CBr)(CBr)CBr`, the T/C is 109 % of control and 119 % of control under setting [2]; 115 % of control under setting [5]; 111 % of control (dose: 144.0 mg/kg/injection, schedule: Q01DX005 (ip), vehicle: saline with Tween-80); 112 % of control (dose: 240.0 mg/kg/injection, schedule: Q01DX005 (ip), vehicle: saline with Tween-80); 166 % of control (dose: 666.67 mg/kg/injection, schedule: Q01DX005 (ip), vehicle: saline with Tween-80).
